Laboratory results reported in patent US20050288488A1, “Ah receptor cDNA and genetically engineered cells for detecting agonists to the Ah receptor” (Northwestern University, priority 1993, published 2005).

Experiments:
AHR-LexA chimera = biological target: T1, AHR-LexA chimera (UniProt P0A7C2+P30561); type: cell-based; settings: for induction of lac Z activity over background: yeast GRS4 chimeric AHR-LexA system, average
T1 construct: expressed in transfected cells; host or cells: Saccharomyces cerevisiae strain GRS4 (with pTT8/hsp82) transformed with pEGAHRNΔ166 and pSH18-34
T1 sequence (P0A7C2+P30561 fused with the stated changes): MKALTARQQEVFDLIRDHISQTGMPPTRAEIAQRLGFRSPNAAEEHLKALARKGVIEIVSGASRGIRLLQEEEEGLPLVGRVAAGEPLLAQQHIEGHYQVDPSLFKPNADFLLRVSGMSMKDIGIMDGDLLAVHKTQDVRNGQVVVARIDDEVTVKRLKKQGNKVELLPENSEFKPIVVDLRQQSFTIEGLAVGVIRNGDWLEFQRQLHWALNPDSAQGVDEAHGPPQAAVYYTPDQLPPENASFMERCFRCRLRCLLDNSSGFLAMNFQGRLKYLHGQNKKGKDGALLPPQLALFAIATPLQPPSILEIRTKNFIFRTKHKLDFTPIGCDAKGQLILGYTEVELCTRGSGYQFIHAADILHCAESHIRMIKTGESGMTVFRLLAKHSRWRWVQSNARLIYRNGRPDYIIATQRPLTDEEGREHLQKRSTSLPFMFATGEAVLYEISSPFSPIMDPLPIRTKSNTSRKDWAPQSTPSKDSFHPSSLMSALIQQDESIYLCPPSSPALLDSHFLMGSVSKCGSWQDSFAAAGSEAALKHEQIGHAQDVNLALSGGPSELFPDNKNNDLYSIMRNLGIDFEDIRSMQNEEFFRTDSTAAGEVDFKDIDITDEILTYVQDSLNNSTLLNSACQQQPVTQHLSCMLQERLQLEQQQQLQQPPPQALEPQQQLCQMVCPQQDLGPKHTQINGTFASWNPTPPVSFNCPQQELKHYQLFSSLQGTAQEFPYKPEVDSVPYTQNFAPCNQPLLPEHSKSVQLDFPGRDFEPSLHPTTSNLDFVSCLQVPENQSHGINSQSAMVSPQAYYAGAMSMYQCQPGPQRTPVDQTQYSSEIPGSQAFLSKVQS
Procedure: Poon, D., Schroeder, S., Wang, C. […] Biol. 11, 4809-4821. […] (1 minute) then 50° C. (1 minute) and then 72° C. (1 minute) for 25 cycles.
β-Galactosidase assays carried out on the AHR-LexANΔ166 chimera system were performed as above except for the following changes. Yeast strains were grown from a single colony overnight at 30° C. in 2 ml of selection medium containing either 2% glucose or 2% galactose as a carbon source. Fifty microliters of this primary culture was used to inoculate a 1-ml culture of the same media containing appropriate concentrations of agonist dissolved in Me2SO. The culture was grown for 16-18 hours with vigorous shaking at room temperature. β-Galactosidase activity was determined by adding a 50-μl aliquot of the cultures to 650 μl of Z-buffer, permeabilizing the cells, and incubating with ONPG at 30° C. for 30 minutes. β-Galactosidase units were determined using the following formula: (A420)/(A600 of 1/10 dilution of cells×volume of culture×length of incubation))×1000.
As described above, strain GRS4 was transformed with a AHR-LexAN 166 fusion plasmid, pEGAHRNΔ166 containing the chimeric Ah receptor and a LexA operator reporter plasmid pSH18-34. In this system, expression of the reporter gene was dependent on pEGAHRNΔ166 expresson and on the presence of agonist. […] The dose-response curves obtained from this chimeric receptor system closely paralleled those of the complete AHR/ARNT/DRE pathway expressed in A303 cells.

full-length human AHR = full-length human AHR (Homo sapiens, UniProt P35869, F659I); settings: for activation of the AHR over background (β-galactosidase): yeast A303 AHR/ARNT/DRE system, average of at least three independent experiments
Sequence of full-length human AHR (P27540 1-774 isoform P27540-2 partner, one chain of several): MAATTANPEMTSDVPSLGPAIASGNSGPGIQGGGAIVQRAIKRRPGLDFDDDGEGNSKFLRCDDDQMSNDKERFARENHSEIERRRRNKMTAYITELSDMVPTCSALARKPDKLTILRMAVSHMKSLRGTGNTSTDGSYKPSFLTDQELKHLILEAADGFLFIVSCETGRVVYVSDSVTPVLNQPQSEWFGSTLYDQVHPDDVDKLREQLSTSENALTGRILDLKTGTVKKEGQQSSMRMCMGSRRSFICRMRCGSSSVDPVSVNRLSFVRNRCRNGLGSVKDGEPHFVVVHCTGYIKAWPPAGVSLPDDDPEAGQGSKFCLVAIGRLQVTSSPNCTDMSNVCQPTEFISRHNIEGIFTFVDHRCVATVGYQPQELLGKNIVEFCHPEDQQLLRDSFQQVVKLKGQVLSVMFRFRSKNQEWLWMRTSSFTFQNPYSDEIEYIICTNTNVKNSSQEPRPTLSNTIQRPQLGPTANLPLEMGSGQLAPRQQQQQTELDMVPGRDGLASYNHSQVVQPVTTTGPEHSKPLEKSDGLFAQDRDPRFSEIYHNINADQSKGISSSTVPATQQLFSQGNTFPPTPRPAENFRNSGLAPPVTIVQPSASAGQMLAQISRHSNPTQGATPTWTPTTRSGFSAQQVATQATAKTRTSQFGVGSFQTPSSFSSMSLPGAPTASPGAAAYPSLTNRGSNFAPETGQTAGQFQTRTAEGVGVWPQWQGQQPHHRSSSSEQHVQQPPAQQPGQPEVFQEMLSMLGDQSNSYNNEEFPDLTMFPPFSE
From the text: S. cerevisiae strain A303 (Mata, ura3-52, trpIΔI, his3Δ200, leu2Δ1) was used as a host to transform the AHR, ARNT, and the lacZ reporter gene driven by two DREs. […] To construct the pCWhuAHR, the full-length human AHR was excised from plasmid phμAHR2, (See Dolwick, K. M., Schmidt, J. V., Carrer, L. A., Swanson, H. I., and Bradfield, C. A. (1993) Mol. Pharmacol. 44, 911-917), with XmaI and cloned into the corresponding site of pCW10. pY2ARNT was constructed by digesting plasmid pBM5/NEO-M1-1 with BamHI and subcloning the ARNT fragment into the corresponding site of the expression vector pYPGE2, a 2 μ, TRP1-marked plasmid containing a phosphoglycerate kinase promoter to drive expression. […] The reporter plasmid pDRE23-Z was constructed by first subcloning the HindIII/EcoRI fragment of pGEMLS3.2, (See Denison, M. S., Fisher, J. M., and Whitlock, J. P. J. (1988) Proc. Natl. Acad. Sci. U.S.A. 85, 2528-2532), containing DRE2-DRE3 into pBluescriptSK (Stratagene) to generate pSKDRE23. The DRE2-DRE3 fragment was subsequently amplified by polymerase chain reaction from pSKDRE23 using 50 pmol of primers OL146 (5′-[sequence]-3′ SEQUENCE ID NO. 24) and OL290 (5′-[sequence]-3′ SEQUENCE ID NO. 25) in a 50-μl reaction containing 200 μm each dNTP, 2 mM MgCl2 10 mm Tris, 50 mM KCl, 0.001% gelatin (w\v). The reaction was incubated at 95° C. for 5 minutes, then 72° C. for 5 minutes during which 2.5 units of Taq polymerases were added and the reaction continued at 95° C. (1 minute) then 50° C. (1 minute) and then 72° C. (1 minute) for 25 cycles.
Plasmids were sequentially transformed into the appropriate yeast strain by electroporation, (See Becker, D. M., and Guarente, L. (1991) Methods of Enzymol. 194, 182-187), or by a modified LiAc method (See Schiestl, R. H., and Giest, R. D. (1989) Curr. Genet. 16, 339-346). For electroporation, 100-500 ng of plasmid DNA was added to 50 μl or electrocompetent cells and incubated on ice for 5 minutes.

AHR = settings: reported, Knutson and Poland (1981); read-out: AHR binding constants (KD values); cited from earlier work
human Ah-receptor = biological target: T2, human Ah-receptor (Homo sapiens, UniProt P35869, F659I); assay: photoaffinity labeling with [125I]-2-azido-3-iodo-7,8-dibromodibenzo-p-dioxin, competition by agonist; type: binding; settings: excess of β-naphthoflavone; human cDNA expressed in COS-1 cells, cytosolic fraction
T2 construct: 102 nucleotides downstream of the stop codon of the full length human Ah-receptor cDNA clone; expressed in transfected cells; host or cells: COS-1 cells electroporated with phuAhR (cytosol, 10 mM molybdate); also in vitro translation in TNT rabbit reticulocyte lysate (Promega)
T2 sequence (P35869 11-848 F659I): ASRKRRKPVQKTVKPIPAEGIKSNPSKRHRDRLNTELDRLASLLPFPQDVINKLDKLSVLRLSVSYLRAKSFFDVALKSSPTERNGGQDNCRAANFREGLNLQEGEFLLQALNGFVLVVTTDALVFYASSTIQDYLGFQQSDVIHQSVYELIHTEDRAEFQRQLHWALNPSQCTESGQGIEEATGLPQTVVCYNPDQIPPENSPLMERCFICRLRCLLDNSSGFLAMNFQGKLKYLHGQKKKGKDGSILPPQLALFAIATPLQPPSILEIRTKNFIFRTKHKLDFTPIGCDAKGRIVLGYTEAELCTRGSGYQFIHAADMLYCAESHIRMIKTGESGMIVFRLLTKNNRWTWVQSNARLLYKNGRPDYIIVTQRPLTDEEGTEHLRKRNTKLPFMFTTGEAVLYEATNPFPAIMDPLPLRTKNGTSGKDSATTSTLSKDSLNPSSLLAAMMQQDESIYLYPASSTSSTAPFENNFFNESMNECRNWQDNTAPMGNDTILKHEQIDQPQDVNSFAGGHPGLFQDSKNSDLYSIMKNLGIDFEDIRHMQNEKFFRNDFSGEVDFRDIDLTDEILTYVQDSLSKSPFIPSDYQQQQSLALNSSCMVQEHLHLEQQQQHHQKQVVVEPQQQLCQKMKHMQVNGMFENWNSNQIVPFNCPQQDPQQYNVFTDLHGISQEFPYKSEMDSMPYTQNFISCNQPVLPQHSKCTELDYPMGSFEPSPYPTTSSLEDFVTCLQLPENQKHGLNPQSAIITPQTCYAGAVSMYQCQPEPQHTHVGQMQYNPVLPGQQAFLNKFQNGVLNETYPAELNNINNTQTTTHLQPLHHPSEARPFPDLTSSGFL
Procedure: (§1) Photoaffinity labeling using the ligand, [^125I]-2-azido-3-iodo-7,8-dibromodibenzo-p-dioxin (specific activity=0.5 μCiμl), was carried out in 50 μl reactions in MENG buffer. Samples were incubated with 0.25 μCi of ligand (0.1 pmoles) ±100 nM β-naphthoflavone 30 minutes at room temperature, cooled on ice and incubated with one fifth of charcoal/gelatin (3%/0.3% w/v) for 30 minutes on ice. The charocal/gelatin was subjected to centrifugation at 14,000 rpm for 5 minutes at 4° C. and the supernatant was irradiated with ultraviolet light at 0.8 J/cm2 followed by addition of 300 mM β-mercaptoethanol. Acetone precipitates were resuspended in 1×Laemmli sample buffer and subjected to 7.5% SDS-PAGE and autoradiograph as described in Sambrook, J., Fritsch, E. F., Maniatis, T., Molecular Cloning: A Laboratory Manual/second edition (Cold Spring Harbor Laboratory Press, 1989).
(§2) Photoaffinity labeling of murine (muAhR) and human (huAhR) Ah-receptors expressed in COS-1 cells. […]
(§3) Experiments were carried out using the TNT Coupled Reticulocyte Lysate System (PROMEGA). […] The efficiency of expression was analyzed in parallel experiments utilizing ^35S-methionine labeling and autoradiography and Western blot analysis using affinity-purified goat antibody raised against an N-terminal peptide derived from the murine Ah-receptor. […]

murine Ah-receptor = biological target: T3, murine Ah-receptor (Mus musculus, UniProt P30561); assay: as above; type: binding; settings: excess of β-naphthoflavone; murine cDNA expressed in COS-1 cells, cytosolic fraction
T3 construct: The resulting full length murine Ah-receptor clone was then subcloned into the SpeI and HindIII sites of pSV-Sport1; expressed in transfected cells; host or cells: COS-1 cells electroporated with pmuAhR (cytosol); also in vitro translation in TNT rabbit reticulocyte lysate (Promega)
T3 sequence (P30561 10-805 S74T/M324I/F348L/P471L/N533S/M589L/T758A limits assumed): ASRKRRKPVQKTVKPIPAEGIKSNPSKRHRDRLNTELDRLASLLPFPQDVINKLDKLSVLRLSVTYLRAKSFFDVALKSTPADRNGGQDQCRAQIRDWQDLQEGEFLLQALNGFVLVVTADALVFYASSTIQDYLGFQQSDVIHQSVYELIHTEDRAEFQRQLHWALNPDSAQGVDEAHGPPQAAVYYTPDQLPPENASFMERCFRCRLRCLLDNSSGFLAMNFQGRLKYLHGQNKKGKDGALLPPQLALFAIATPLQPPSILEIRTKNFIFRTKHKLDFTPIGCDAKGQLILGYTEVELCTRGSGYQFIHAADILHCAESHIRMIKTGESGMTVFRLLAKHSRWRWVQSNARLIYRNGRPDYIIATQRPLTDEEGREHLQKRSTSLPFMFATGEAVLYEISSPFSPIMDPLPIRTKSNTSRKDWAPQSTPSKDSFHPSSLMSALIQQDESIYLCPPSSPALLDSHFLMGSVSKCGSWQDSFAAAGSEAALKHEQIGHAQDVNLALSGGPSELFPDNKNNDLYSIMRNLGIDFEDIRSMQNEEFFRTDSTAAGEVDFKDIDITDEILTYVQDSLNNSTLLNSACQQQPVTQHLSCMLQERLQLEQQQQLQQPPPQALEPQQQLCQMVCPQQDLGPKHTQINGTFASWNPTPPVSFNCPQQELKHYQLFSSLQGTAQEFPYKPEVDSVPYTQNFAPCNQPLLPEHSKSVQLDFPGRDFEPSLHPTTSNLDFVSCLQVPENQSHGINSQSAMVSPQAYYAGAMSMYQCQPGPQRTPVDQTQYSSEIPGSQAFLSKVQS
Procedure: as §1, §2, §3

O=c1cc(-c2ccccc2)oc2c1ccc1ccccc12 [αNF, α-naphthoflavone]
induction of lac Z activity over background (AHR-LexA chimera): 90 fold | EC50 (full-length human AHR): 800 nM | activation of the AHR over background (β-galactosidase) (full-length human AHR): 12 fold | Kd (AHR): 29 nM

O=c1cc(-c2ccccc2)oc2ccc3ccccc3c12 [βNF, β-naphthoflavone]
induction of lac Z activity over background (AHR-LexA chimera): 90 fold | EC50 (AHR-LexA chimera; yeast GRS4 with pEGAHRNΔ166 and pSH18-34, agonist 16-18 hours, read-out: EC50 (LexA operator lacZ reporter)): 61 nM | inhibition of photoaffinity labeling of the receptor (human Ah-receptor): inhibited the labeling of the receptors | inhibition of photoaffinity labeling of the receptor (murine Ah-receptor): inhibited the labeling of the receptors | EC50 (full-length human AHR): 79 nM | activation of the AHR over background (β-galactosidase) (full-length human AHR): 12 fold | Kd (AHR): […]
